Measured values taken from US12060588B2, “Methods of editing DNA methylation” (Whitehead Institute for Biomedical Research, priority 2016, dated 2024).

What was measured:
[1] = test system: MyoD distal enhancer (DMR-5) / MyoD expression; experiment: MyoD expression in C3H10T1/2 cells (RT-qPCR); type: cell-based, mouse
[2] = test system: Snrpn promoter region (Dazl-Snrpn-GFP reporter); experiment: Activation of the Dazl-Snrpn-GFP methylation reporter in mESCs (flow cytometry); type: cell-based, mouse; conditions: lentiviral infection, 3 days, FACS
Protocol: FIGS. 1A-IF depict activation of the Daz1-Snrpn-GFP reporter by dCas9-Tet1. […] FIG. 1B is a schematic representation of targeting the Snrpn promoter region by dCas9-Tet1 with specific gRNAs to erase methylation and activate GFP expression. […] Percentage of GFP positive cells were calculated by flow cytometric analysis of these cells 3-day post infection, and shown as the mean percentages of GFP positive cells±SD of two biological replicates. Note that the percentages of GFP-positive cells are expressed as the fraction of infected Cherry-positive cells. […] Scale bar: 250 um. Right: provides percentages of GFP positive colonies were quantified, and shown as the mean percentages of GFP positive cells±SD of two biological replicates. […] FIG. 1F provides methylation levels of individual CpGs in the Snrpn promoter region and the adjacent Dazl locus. Shown is the mean percentage±SD of two biological replicates.
To assess whether the dCas9-Tet1 and -Dnmt3a fusion constructs would induce demethylation or de novo methylation, respectively, of specific sequences, we utilized a methylation reporter system previously developed in our laboratory (Stelzer et al., 2015). This reporter system consists of a synthetic methylation-sensing promoter (conserved sequence elements from the promoter of an imprinted gene, Snrpn) that controls the expression of a green fluorescence protein (GFP). […]

Npas4 = Npas4 expression in mouse cortical neurons (RT-qPCR); type: cell-based; conditions: with the 4 BDNF promoter IV gRNAs
Protocol: FIGS. 11A-11L depict targeted demethylation of BDNF promoter IV by dCas9-Tet1 in neurons. […] PAM for each gRNA is highlighted by a red box. […] Note that cultured neurons were treated with AraC on DIV2 to halt cell division in glial cells and neural progenitors. […] FIG. 11C provides EDU labeling analysis for the mouse primary neurons over the course of KCl treatment for 24 hrs. Note that extremely few EDU positive cells were observed. Stained in red for EDU, green for MAP2 and DAPI for nuclei. Scale bar: 500 um. FIG. 11D Upper panel: provides quantification of neuronal density over the course of KCl treatment. The post-mitotic neuron density remains steadily around 4.5×10^4/cm2 over time. Bars represent mean±SD of three experimental replicates. Lower panel: provides quantification of the EDU positive cells over the course of KCl treatment. Less than 2% of the cells are EDU-positive over 24 hrs. Bars represent mean±SD of three experimental replicates. FIG. 11E provides confocal micrographs of BDNF induction by ectopic expression of dCas9-Tet1 and a set of 4 gRNAs targeting BDNF promoter IV. Stained in green for BDNF, magenta for MAP2, red for Cherry and blue for DAPI. […]
Cells were harvested using Trizol followed by Direct-zol (Zymo Research), according to manufacturer's instructions. […] Quantitative PCR reactions were prepared with SYBR Green (Invitrogen), and performed in 7900HT Fast ABI instrument. […]

Substance: dCas9-Tet1: catalytically inactive Cas9 (dCas9) fused through NLS to the Tet1 catalytic domain, SEQ ID NO: 159; lentivirally expressed with gRNAs
- induction of MyoD expression ([1]; MyoD DMR-5 gRNAs combined with 5-Aza treatment (48-hour)): higher induction of MyoD
- induction of MyoD expression ([1]; with 4 gRNAs targeting DMR-5, C3H10T1/2 cells, 2 days, Cherry positive sorted): 3 fold
- GFP positive cells among the Cherry positive population ([2]; with 4 target gRNAs (Snrpn promoter)): about 26%
- GFP positive cells among the Cherry positive population ([2]; with a scrambled gRNA): 1%
- induction of Npas4 expression (Npas4): did not induce Npas4 expression
